From article PMC9258070, “Establishment and evaluation of glucose-modified nanocomposite liposomes for the treatment of cerebral malaria” (Journal of Nanobiotechnology, 2022)
Where a name gives a salt, the structure may show the parent alone.

Columns and labels:
[1] = Brain biodistribution study (LC-MS); details: C57BL/6, mouse
Description: (§1) The C57BL/6 mouse cerebral malaria model was established according to the method of “In vivo antimalarial experiment”. The model mice were randomly divided into the intranasal administration group (na-ATS/TMP@lipoBX) and tail vein injection group (iv-ATS/TMP@lipoBX). The dosage of each administration group was artesunate (ATS) 15.6 mg/kg and tetramethylpyrazine hydrochloride (TMP) 20.8 mg/kg.
Mice were euthanized and the brains were dissected. The brain samples were homogenized by adding 4 times their weight of physiological saline to prepare a tissue homogenate. The brain homogenates were processed according to the processing method for the plasma sample, and LC–MS quantitative analysis was carried out.
(§2) LC conditions were as follows: column: Waters UPLC BEH C18 column (1.7 μm, 2.1 mm × 50 mm); mobile phase: water (0.1% formic acid and 5 mM ammonium formate)-acetonitrile (85:15, v/v), flow rate: 0.3 ml/min; column temperature: 35 ℃. Mass spectrum conditions were as follows: electric spray ion source (ESI); multiple response monitoring (MRM) mode; positive ion scanning mode; air curtain pressure (N2) was 40 psi, impact air pressure (N2) was 9 psi, atomization gas pressure (N2) was 55 psi, auxiliary gas pressure (N2) was 55 psi; spray voltage was 5500 V; atomization temperature was 550 ℃.

[2] = Pharmacokinetic study in plasma (LC-MS); details: C57BL/6, mouse
Description: as §1
Blood samples were collected at 5 min, 10 min, 15 min, 30 min, 45 min, 1 h, 2 h, 4 h, 8 h, 12 h and 24 h after administration. These samples were immediately placed in a tube containing heparin sodium (1000 U/mL). Plasma samples were obtained after centrifugation at 4000 rpm for 10 min and an esterase inhibitor was added to the samples. Subsequently, methanol was added to the plasma in the ratio of 1:2 (plasma-methanol) and centrifuged at 14,000 rpm for 5 min to obtain liquid supernatant for quantitative analysis by LC–MS.
as §2

[3] = Solubility of the conjugate (description); assay type: physicochemical

C[C@H]1[C@H](OC(=O)CCC(=O)O)O[C@@H]2O[C@@]3(C)CC[C@H]4[C@H](C)CC[C@@H]1[C@@]24OO3 [ATS, artesunate]
Tmax ([1]; brain, inhaled or intranasal): 210 ± 60 min | Tmax ([1]; brain, iv): 495 ± 311 min | bioavailability ([1]; brain, other: intranasal): ~415% | bioavailability ([2]; in vivo): ~91% | Tmax ([2]; plasma, inhaled or intranasal): 144 ± 225 min | Tmax ([2]; plasma, iv): 17.5 ± 18.5 min

C[C@H]1[C@@H](O)O[C@@H]2O[C@@]3(C)CC[C@H]4[C@H](C)CC[C@@H]1[C@@]24OO3 [DHA, dihydroartemisinin]
Tmax ([1]; brain, inhaled or intranasal): 23.8 ± 17 min | Tmax ([1]; brain, iv): 7.5 ± 2.88 min | bioavailability ([1]; brain, other: intranasal): ~449%

Cc1nc(C)c(C)nc1C [TMP, tetramethylpyrazine hydrochloride]
bioavailability ([1]; in vivo): ~183% | Tmax ([1]; in vivo, inhaled or intranasal): 4.98 min | Tmax ([1]; in vivo, iv): 4.98 min | bioavailability ([2]; in vivo): ~97% | Tmax ([2]; in vivo, inhaled or intranasal): 4.98 min | Tmax ([2]; in vivo, iv): 6.24 ± 2.52 min

CC(C)CCCC(C)C1CCC2C3CC=C4CC(OC(=O)CCCCCCCCCCOc5ccc(OC6OC(CO)C(O)C(O)C6O)cc5)CCC4(C)C3CCC12C (stereo not shown) [cholesterol-undecanoate-glucose conjugate]
solubility [3]: soluble in ethanol and tetrahydrofuran
